Measured values as given in patent publication US9980937B2, “Therapeutic agent for Alzheimer's disease” (NAGASAKI UNIVERSITY, priority 2014, dated 2018).

Legend:
[1] = system: neprilysin; test: neprilysin-dependent neutral endopeptidase activity of APP-H4 cell extract (suc-AAF-AMC coupled enzyme assay); type: cell-based, human; conditions: APP-H4 cells, 48 hr, 1 or 10 μM; activity without polyphenol derivative = 1 (FIG. 1)
Protocol: (§1) APP-H4 cells were seeded to a 6-well plate at a density of 12×10^4 cells/1.5 mL, and cultured in Dulbecco's modified Eagle's medium (DMEM; Nacalai Tesque, Inc.) added with 10% fetal bovine serum (FBS; Equitech-Bio, Inc. [Kerrville, Tex., USA]), 100 U/mL penicillin+100 μg/mL streptomycin (Nacalai Tesque, Inc.). After culture for 24 hr, the culture supernatant was removed, and the medium was exchanged with a medium with reduced use amount of serum, Opti-MEM (registered trade mark) I Reduced Serum Medium (Life Technologies Corporation, Carlsbad, Calif., USA) (1 mL). A polyphenol derivative (1 μL) to be the test target was added, and the mixture was further cultured for 48 hr. After culture, the culture supernatant was recovered in a tube (total amount 1.5 mL), centrifuged at 4,000×g/4° C./10 min to remove dead cells, and the supernatant (800 μL) was placed in a new tube. The culture supernatant was preserved at −80° C. before sample preparation. The cells were washed twice with ice-cooled phosphate-buffered saline (PBS). Thereafter, the cells were scraped from the plate using a Cell Scraper. The cells were recovered in a 1.5 mL tube and centrifuged at 4,000×g/4° C./10 min. The supernatant was removed and the cells were preserved at −80° C. before sample preparation. The frozen cells were lysed in 40 μL of solubilization buffer containing 1% Triton X-100, protease inhibitor cocktail Complete™ EDTA-free (Roche) and 50 mM Tris-HCl on ice. The cell lysate was incubated on ice for 60 min, centrifuged at 4° C., 21,900×g for 30 min, and the supernatant was recovered and used as a solubilization cell extract.
The total protein concentration of the cell extract was determined by a BCA protein assay kit (Takara) by using BSA as the standard solution. The final concentration of the test compound used was 1 μM or 10 μM, and quantification was performed using each solvent as a control.
The neprilysin-dependent neutral endopeptidase activity of the cell extract was measured fluorescence quantitatively by an indirect coupled enzyme assay method. […] Total 50 μL of the reaction mixture was prepared such that the final concentration was substrate 0.1 mM suc-AAF-AMC, protein in the cell extract 1-6 μg, 100 mM MES buffer (pH 6.5). With the time of addition of the substrate as the start of the reaction, the mixture was reacted at 37° C. for 1 hr, and Phe-AMC was cut out from the substrate by neutral endopeptidase. […] The mixture was reacted at 37° C. for 30 min, and Phe (phenylalanine) residue was cut out from Phe-AMC by aminopeptidase.

[2] = system: neprilysin; test: neprilysin expression amount at protein level (western blot, APP-H4 cells); type: cell-based, human; conditions: 48 hr, standardized to β-actin (FIG. 2)
Protocol: as §1
The aforementioned cell extract was mixed with 6×SDS-polyacrylamide gel electrophoresis (SDS-PAGE) sample buffer (Nacalai Tesque, Inc.) at a ratio of 5:1, boiled for 5 min, and used as a detection sample of neprilysin, α-secretase and β-secretase proteins.
The PVDF membrane after transfer was washed with a wash buffer and immersed in a blocking buffer to prevent non-specific binding of the primary antibody, and a blocking reaction was performed at room temperature for 1 hr. […] The PVDF membrane after the reaction was washed with the wash buffer and the secondary antibody (horseradish peroxidase conjugated anti-mouse or anti-rabbit IgG (1:10,000; GE Healthcare UK Ltd.)) corresponding to the primary antibody was reacted at room temperature for 1 hr and detection was carried out using the ECL Select Western Blotting Detection Kit (GE Healthcare UK Ltd.).
The signal intensity of the band was quantified using a densitometer LAS-4000 (GE Healthcare UK Ltd.) and image analysis software Science Laboratory 2003 Image Gauge Version 4.23 (Fujifilm Holdings Corporation, Tokyo, Japan).

[3] = system: α-secretase; test: α-secretase activity (APPsα, western blot); type: cell-based, human; conditions: APP-H4 culture supernatant, APPsα (FIG. 2)
Protocol: as §1, with “The cells were recovered in a 1.5 mL tube and centrifuged at 4,000×g/4° C./10 min. The supernatant was removed and the cells were preserved at −80° C. before sample preparation. The frozen cells were lysed in 40 μL of solubilization buffer containing 1% Triton X-100, protease inhibitor cocktail Complete™ EDTA-free (Roche) and 50 mM Tris-HCl on ice. The cell lysate was incubated on ice for 60 min, centrifuged at 4° C., 21,900×g for 30 min, and the supernatant was recovered and used as a solubilization cell extract.” left out
(§2) The signal intensity of the band was quantified using a densitometer LAS-4000 (GE Healthcare UK Ltd.) and image analysis software Science Laboratory 2003 Image Gauge Version 4.23 (Fujifilm Holdings Corporation, Tokyo, Japan). […]

[4] = system: APP; test: extracellularly secreted APPsα/APPsβ ratio (western blot); type: cell-based, human; conditions: APP-H4 culture supernatant (FIG. 2)
Protocol: as §1
(§3) After thawing from −80° C., the aforementioned culture supernatant was mixed with 6×SDS-polyacrylamide gel electrophoresis (SDS-PAGE) sample buffer (Nacalai Tesque, Inc.) at a ratio of 5:1, boiled for 5 min, and used as a detection sample of APPsα which is a metabolite of APP by α-secretase and APPsβ which is a metabolite of APP by β-secretase in western blot analysis.
The PVDF membrane after transfer was washed with a wash buffer and immersed in a blocking buffer to prevent non-specific binding of the primary antibody, and a blocking reaction was performed at room temperature for 1 hr. Thereafter, it was reacted with a primary antibody (APPsα, anti-human APPsα mouse monoclonal antibody (2B3, Immuno-Biological Laboratories Co., Ltd., Gunma, Japan) (3 μg/mL); APPsβ, anti-APPsβ, rabbit polyclonal antibody, 1 μg/mL) to perform an antigen-antibody-reaction at 4° C. for not less than 16 hr. […]
as §2

[5] = system: ADAM17; test: α-secretase mRNA expression, ADAM17 (real-time PCR); type: cell-based, human; conditions: control = 1
Protocol: In the same manner as in the above-mentioned 2, total RNA was prepared using a High Pure RNA Isolation kit (Roche 11828665001) from the cells to be the test target cells, which were treated with each polyphenol derivative and cultured, and subjected to a reverse transcription reaction using PrimeScript RT-PCR kit (TaKaRaRR014A) to give a sample (cDNA) for real-time PCR.
The prepared sample, Premix Ex taq (Perfect Real Time) (TaKaRaRR039A) and a probe, and a primer were mixed in a tube (TaKaRa SC910A), and real-time PCR reaction (initial denaturation: 95° C. 30 sec, PCR reaction: 95° C. 5 sec, 60° C. 20 sec, 40 times) was performed by Smart Cycler II System machine (TaKaRa).
The 5′-terminus of the probe was modified by a fluorescent substance FAM, and the 3′-terminus was modified by a quencher substance TAMRA, respectively.

[6] = system: neprilysin, α-secretase, β-secretase; test: overall conclusion on modulation of neprilysin, α-secretase and β-secretase (Example 1); type: cell-based, human; conditions: conclusion from the results of Example 1
Protocol: as §1
The neprilysin-dependent neutral endopeptidase activity of the cell extract was measured fluorescence quantitatively by an indirect coupled enzyme assay method. As a neutral endopeptidase substrate, succinyl-Ala-Ala-Phe-7-amino-4-methylcoumarin (suc-AAF-AMC) (1-1315; Bachem) was used. Total 50 μL of the reaction mixture was prepared such that the final concentration was substrate 0.1 mM suc-AAF-AMC, protein in the cell extract 1-6 μg, 100 mM MES buffer (pH 6.5). With the time of addition of the substrate as the start of the reaction, the mixture was reacted at 37° C. for 1 hr, and Phe-AMC was cut out from the substrate by neutral endopeptidase. Then, to the reaction mixture was added a solution (2.5 μL) containing 0.1 mg (0.4 unit equivalent)/mL leucine aminopeptidase (L-5006; Sigma-Aldrich), and 0.2 mM phosphoramidon (4082; Peptide Institute). The mixture was reacted at 37° C. for 30 min, and Phe (phenylalanine) residue was cut out from Phe-AMC by aminopeptidase. Using microplate spectrometer Infinite M-1000 (Tecan), the fluorescence intensity of free AMC was measured by measuring at an excitation wavelength 390 nm and a fluorescence wavelength 460 nm on a half-well size 96-well black plate (#3695; Corning). The neprilysin-dependent neutral endopeptidase activity was determined based on a decrease in the activity due to 10 μM thiorphan (T-6031; Sigma-Aldrich) as a neprilysin specific inhibitor.
as §3, with “analysis. […]” for “analysis.”

[7] = coefficient of partition for octanol, in accordance with Fudouji et al. 2009; cited from earlier work
[8] = system: neprilysin; test: neprilysin activity staining of primary culture nerve cells; type: cell-based; conditions: mouse primary culture nerve cells, 48 hr; Minocycline 5 μM, Somatostatin and Harmine 1 μM, others 10 μM (FIG. 4C)
Protocol: This is a method of measuring the amount of neprilysin localized on the cell membrane surface by using cultured cells. Since Aβ is secreted extracellularly, the more neprilysin is present on the cell membrane, the more efficiently Aβ can be degraded and removed. The following procedure was performed according to a previous report (JP-A-2004-151079; Saito T., Iwata N., et al., Nat. Med. 11(4), 434-439, 2005).
Nerve cells prepared from mouse embryocerebral cortex and hippocampus were cultured and fixed, and reacted with a substrate. After completion of the reaction, aminopeptidase-phosphoramidon mixture and nitrosalicylaldehyde solution were sequentially added and reacted. For the cells after completion of the reaction, positively stained images were observed using a filter for argon laser and rhodamine under a confocal laser microscope. More conveniently, it is also possible to observe positively stained images by using a FITC filter under a fluorescence microscope. When the substrate is degraded by neprilysin, an insoluble fluorescence reaction product is formed, and the site where neprilysin is present is visualized in yellow (pseudocolor and could be green). When the cells are stained by this method, the copresence of thiorphan, which is a specific inhibitor of neprilysin, causes disappearance of the positively stained images, and therefore, the presence of neprilysin on the cell surface of primary culture nerve cells of mouse embryocerebral cortex and hippocampus can be confirmed.
The nerve cells prepared from mouse embryocerebral cortex and hippocampus were cultured, the following test compounds were individually added at a given concentration from day 7 to day 21 of culture, and further cultured for 48 hr. After completion of the culture, the neprilysin activity of the mouse primary culture nerve cells was visualized and observed by the method shown in the above-mentioned 1. The stained images were quantified by an image analysis software (MetaMorph, ver. 7.7 (Universal Imaging Corporation, Downington, Pa.)) and studied. […]

[9] = biological target: T1, β-secretase (Homo sapiens, UniProt P56817); test: β-secretase activity (APPsβ, western blot); type: cell-based; conditions: APP-H4 culture supernatant, APPsβ (FIG. 2)
T1 construct: endogenous in cells; host or cells: APP-H4 cells (culture supernatant analysed)
T1 sequence (P56817 46-501): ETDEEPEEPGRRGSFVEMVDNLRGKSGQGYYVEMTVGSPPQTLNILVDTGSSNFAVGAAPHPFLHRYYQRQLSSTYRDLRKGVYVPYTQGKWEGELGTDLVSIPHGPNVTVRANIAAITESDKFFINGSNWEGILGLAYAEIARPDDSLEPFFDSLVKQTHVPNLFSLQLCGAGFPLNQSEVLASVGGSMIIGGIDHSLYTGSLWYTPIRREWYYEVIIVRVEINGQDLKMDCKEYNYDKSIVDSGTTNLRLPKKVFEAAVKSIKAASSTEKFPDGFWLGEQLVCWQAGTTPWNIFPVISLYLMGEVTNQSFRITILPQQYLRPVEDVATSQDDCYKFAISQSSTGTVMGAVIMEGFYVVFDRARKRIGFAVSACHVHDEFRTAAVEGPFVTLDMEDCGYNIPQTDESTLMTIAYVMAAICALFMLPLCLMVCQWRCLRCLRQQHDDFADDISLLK
Protocol: as §1, with “extract. […]” for “extract.”
as §2

Question: Which results are given for `CC(C)=CCC/C(C)=C/Cc1c(O)cc(O)c2c1O[C@H](c1cc(O)c(O)c(O)c1)[C@H](OC(=O)c1cc(O)c(O)c(O)c1)C2` [NUP-16]?
Answer: neprilysin activity potentiating action [1]: about 1.8 times that of control; expression amount of neprilysin at the protein level [2]: about 1.8 times that of control; α-secretase activity [3]: about 1.7 times that of control; extracellularly secreted APPsα/APPsβ ratio [4]: about 1.6 times that of control; ADAM17 expression at the mRNA level [5]: about 1.2 times that of control; modulator class (neprilysin / α-secretase / β-secretase) [6]: double modulator; log P octanol [7]: 2.55

Question: With `CN(C)CCCN1c2ccccc2Sc2ccc(Cl)cc21` [Chlorpromazine] as the molecule, how does the “neprilysin activity potentiating action (activity staining)” value [8] read?
Answer: neprilysin activity potentiating action

Question: For `COc1ccc2c(c1)[nH]c1c(C)nccc12` [Harmine], which “neprilysin activity potentiating action (activity staining)” value [8] is on record?
Answer: neprilysin activity potentiating action

Question: What does the source list for `C/C(=C\Cc1c(C(=O)O[C@@H]2Cc3c(O)cc(O)cc3O[C@@H]2c2cc(O)c(O)c(O)c2)cc(O)c(O)c1O)CCCC(C)CCCC(C)CCCC(C)C` (some centres unmarked) [NUP-18]?
Answer: neprilysin activity potentiating action [1]: about 3.8 times that of control; expression amount of neprilysin at the protein level [2]: about 3.8 times that of control; α-secretase activity [3]: about 1.2 times that of control; β-secretase activity, remaining relative to control [9]: about 43 % that of control; extracellularly secreted APPsα/APPsβ ratio [4]: about 2.1 times that of control; modulator class (neprilysin / α-secretase / β-secretase) [6]: triple modulator

Question: Which “neprilysin activity potentiating action” value [1] does the source give for `Oc1ccc(/C=C/c2cc(O)cc(O)c2)cc1` [Resveratrol] here?
Answer: about 1.4 times that of control

Question: And the “neprilysin activity potentiating action (activity staining)” value [8]?
Answer: neprilysin activity potentiating action
